From ChEMBL document CHEMBL1145498, “A systematic interaction map of validated kinase inhibitors with Ser/Thr kinases” (Proc Natl Acad Sci U S A, 2007)

Tests used:
[1] = target: 5'-AMP-activated protein kinase catalytic subunit alpha-2 (Homo sapiens) (UniProt P54646)
[2] = target: Calcium/calmodulin-dependent protein kinase type 1D (Homo sapiens) (UniProt Q8IU85)
[3] = target: Calcium/calmodulin-dependent protein kinase type 1G (Homo sapiens) (UniProt Q96NX5)
[4] = target: Calcium/calmodulin-dependent protein kinase type II subunit delta (Homo sapiens) (UniProt Q13557)
Sequence of Calcium/calmodulin-dependent protein kinase type II subunit delta (Homo sapiens) (Q13557 whole entry): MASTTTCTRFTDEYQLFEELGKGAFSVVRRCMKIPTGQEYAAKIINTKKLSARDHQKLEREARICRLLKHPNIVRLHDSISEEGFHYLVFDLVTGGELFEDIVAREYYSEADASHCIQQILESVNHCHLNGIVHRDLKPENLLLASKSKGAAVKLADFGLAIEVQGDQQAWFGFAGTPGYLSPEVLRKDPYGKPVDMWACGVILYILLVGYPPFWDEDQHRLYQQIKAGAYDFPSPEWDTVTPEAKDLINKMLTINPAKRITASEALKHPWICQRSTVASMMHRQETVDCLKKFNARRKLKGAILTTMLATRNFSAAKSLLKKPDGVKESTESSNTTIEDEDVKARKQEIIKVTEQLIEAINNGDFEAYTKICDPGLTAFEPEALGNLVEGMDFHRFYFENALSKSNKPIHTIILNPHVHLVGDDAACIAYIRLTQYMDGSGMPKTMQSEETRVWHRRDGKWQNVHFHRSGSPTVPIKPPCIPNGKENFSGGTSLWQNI

[5] = target: Calcium/calmodulin-dependent protein kinase kinase 2 (Homo sapiens, UniProt Q96RR4)
[6] = target: Cyclin-dependent kinase 2 (Homo sapiens, UniProt P24941)
[7] = target: Dual specificity protein kinase CLK2 (Homo sapiens) (UniProt P49760)
[8] = target: Casein kinase I isoform gamma-1 (Homo sapiens) (UniProt Q9HCP0)
Sequence of Casein kinase I isoform gamma-1 (Homo sapiens) (Q9HCP0 whole entry, looked up, canonical isoform): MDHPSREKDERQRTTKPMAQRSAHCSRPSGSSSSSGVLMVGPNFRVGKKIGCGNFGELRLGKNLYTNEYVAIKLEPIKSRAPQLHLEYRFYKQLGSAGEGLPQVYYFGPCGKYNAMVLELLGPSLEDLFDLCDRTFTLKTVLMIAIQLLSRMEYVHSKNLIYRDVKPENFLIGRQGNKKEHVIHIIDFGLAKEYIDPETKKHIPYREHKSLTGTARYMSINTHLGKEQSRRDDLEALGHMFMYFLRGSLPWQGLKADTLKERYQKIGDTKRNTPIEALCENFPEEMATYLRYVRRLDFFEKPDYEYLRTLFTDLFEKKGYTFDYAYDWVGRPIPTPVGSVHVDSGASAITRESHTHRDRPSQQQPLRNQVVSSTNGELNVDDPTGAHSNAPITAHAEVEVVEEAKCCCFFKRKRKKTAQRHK

[9] = target: Casein kinase I isoform gamma-2 (Homo sapiens) (UniProt P78368)
[10] = target: Death-associated protein kinase 3 (Homo sapiens) (UniProt O43293)
[11] = target: Glycogen synthase kinase-3 beta (Homo sapiens, UniProt P49841)
[12] = target: Tyrosine-protein kinase JAK1 (Homo sapiens) (UniProt P23458)
[13] = target: Dual specificity mitogen-activated protein kinase kinase 2 (Homo sapiens, UniProt P36507)
[14] = target: T1, Dual specificity mitogen-activated protein kinase kinase 6 (Homo sapiens) (UniProt P52564)
T1 sequence (whole entry): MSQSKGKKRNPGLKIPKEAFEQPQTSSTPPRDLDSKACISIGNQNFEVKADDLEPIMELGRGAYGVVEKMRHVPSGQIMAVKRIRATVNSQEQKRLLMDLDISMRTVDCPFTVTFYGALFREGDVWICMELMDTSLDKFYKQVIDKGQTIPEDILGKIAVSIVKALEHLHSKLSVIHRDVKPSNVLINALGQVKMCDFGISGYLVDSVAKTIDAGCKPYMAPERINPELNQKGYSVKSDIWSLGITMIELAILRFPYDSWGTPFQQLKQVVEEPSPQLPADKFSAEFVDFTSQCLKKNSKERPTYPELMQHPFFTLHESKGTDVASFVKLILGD

[15] = target: Mitogen-activated protein kinase 3 (Homo sapiens, UniProt P27361)
[16] = target: Serine/threonine-protein kinase Nek6 (Homo sapiens) (UniProt Q9HC98)
[17] = target: Serine/threonine-protein kinase OSR1 (Homo sapiens) (UniProt O95747)
Sequence of Serine/threonine-protein kinase OSR1 (Homo sapiens) (O95747 2-527 limits assumed): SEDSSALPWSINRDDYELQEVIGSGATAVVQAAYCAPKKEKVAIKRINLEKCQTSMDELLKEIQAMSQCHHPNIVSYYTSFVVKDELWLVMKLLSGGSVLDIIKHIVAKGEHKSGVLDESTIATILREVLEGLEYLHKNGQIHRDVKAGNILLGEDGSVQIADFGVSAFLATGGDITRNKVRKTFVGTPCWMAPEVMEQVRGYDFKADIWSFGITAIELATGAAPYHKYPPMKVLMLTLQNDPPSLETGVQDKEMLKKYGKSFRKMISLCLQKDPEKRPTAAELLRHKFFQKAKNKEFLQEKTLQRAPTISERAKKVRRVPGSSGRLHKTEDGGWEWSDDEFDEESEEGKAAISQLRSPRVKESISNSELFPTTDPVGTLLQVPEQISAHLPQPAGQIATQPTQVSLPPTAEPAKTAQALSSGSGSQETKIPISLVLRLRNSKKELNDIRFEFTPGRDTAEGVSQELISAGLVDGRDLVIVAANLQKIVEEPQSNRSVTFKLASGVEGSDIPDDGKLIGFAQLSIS

[18] = target: Serine/threonine-protein kinase PAK 5 (Homo sapiens) (UniProt Q9P286)
[19] = target: Cyclin-dependent kinase 16 (Homo sapiens) (UniProt Q00536)
[20] = target: Serine/threonine-protein kinase pim-3 (Homo sapiens) (UniProt Q86V86)
[21] = target: Serine/threonine-protein kinase PLK1 (Homo sapiens) (UniProt P53350)
[22] = target: cAMP-dependent protein kinase catalytic subunit alpha (Homo sapiens) (UniProt P17612)
[23] = target: Serine/threonine-protein kinase RIO2 (Homo sapiens) (UniProt Q9BVS4)
Sequence of Serine/threonine-protein kinase RIO2 (Homo sapiens) (Q9BVS4 whole entry, looked up): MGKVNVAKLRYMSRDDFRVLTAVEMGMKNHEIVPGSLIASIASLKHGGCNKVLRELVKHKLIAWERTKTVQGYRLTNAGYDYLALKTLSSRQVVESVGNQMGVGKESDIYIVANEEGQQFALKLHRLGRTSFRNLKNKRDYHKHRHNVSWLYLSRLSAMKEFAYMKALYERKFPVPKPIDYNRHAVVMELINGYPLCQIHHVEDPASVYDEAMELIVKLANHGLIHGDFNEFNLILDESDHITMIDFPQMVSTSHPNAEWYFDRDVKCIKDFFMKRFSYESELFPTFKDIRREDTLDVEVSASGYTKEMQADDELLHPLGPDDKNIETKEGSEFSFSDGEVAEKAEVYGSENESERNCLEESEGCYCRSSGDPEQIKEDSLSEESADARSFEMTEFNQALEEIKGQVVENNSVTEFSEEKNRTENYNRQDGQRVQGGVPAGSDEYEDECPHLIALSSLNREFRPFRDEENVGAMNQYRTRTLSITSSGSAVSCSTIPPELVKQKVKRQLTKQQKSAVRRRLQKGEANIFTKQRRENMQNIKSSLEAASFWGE

[24] = target: Ribosomal protein S6 kinase alpha-3 (Homo sapiens) (UniProt P51812)
Sequence of Ribosomal protein S6 kinase alpha-3 (Homo sapiens) (P51812 whole entry): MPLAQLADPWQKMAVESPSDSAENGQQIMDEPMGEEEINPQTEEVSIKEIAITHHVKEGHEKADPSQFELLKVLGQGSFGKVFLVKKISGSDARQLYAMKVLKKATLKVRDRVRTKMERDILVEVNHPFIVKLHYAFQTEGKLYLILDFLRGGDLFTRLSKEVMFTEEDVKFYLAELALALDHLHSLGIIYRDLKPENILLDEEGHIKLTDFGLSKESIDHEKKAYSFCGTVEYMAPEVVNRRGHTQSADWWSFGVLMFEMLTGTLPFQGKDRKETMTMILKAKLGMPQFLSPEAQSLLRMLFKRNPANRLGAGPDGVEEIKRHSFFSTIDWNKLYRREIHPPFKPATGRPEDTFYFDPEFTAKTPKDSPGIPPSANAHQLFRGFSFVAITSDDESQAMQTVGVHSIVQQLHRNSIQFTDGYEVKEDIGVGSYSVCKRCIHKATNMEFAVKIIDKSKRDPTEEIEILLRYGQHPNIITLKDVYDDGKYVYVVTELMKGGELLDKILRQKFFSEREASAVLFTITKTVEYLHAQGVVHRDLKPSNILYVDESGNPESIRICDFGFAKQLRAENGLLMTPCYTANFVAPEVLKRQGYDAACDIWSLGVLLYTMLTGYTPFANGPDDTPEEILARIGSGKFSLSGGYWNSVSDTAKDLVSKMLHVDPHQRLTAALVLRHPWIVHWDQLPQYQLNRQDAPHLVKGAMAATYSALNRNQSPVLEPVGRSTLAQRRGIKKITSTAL

[25] = target: STE20-like serine/threonine-protein kinase (Homo sapiens) (UniProt Q9H2G2)
[26] = target: Serine/threonine-protein kinase 10 (Homo sapiens) (UniProt O94804)
Sequence of Serine/threonine-protein kinase 10 (Homo sapiens) (O94804 whole entry, looked up): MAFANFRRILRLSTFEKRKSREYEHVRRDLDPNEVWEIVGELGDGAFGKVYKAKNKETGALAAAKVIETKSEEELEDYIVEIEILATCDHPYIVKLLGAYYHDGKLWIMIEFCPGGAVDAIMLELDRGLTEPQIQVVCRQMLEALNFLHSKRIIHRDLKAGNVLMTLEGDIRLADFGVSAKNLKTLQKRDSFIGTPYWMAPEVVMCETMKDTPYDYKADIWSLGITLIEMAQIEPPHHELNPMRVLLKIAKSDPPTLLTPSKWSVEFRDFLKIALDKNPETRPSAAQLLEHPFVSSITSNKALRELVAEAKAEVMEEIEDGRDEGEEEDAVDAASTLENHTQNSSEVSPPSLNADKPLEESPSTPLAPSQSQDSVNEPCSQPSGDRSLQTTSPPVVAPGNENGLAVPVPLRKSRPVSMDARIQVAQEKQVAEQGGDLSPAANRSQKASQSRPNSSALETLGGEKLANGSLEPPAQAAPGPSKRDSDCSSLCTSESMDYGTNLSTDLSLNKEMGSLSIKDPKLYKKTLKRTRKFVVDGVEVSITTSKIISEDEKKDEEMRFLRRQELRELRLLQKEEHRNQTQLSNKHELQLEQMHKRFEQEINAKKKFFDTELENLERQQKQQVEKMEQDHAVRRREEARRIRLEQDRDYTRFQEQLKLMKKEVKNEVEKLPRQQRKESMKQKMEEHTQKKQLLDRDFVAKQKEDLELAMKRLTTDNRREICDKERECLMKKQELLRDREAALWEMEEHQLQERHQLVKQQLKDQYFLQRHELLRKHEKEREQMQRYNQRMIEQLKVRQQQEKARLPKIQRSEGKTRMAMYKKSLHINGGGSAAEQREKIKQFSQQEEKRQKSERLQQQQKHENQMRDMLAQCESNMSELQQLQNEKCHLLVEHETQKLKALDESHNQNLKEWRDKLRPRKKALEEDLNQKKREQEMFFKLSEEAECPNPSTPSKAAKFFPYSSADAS

[27] = target: Serine/threonine-protein kinase 26 (Homo sapiens) (UniProt Q9P289)
[28] = target: TRAF2 and NCK-interacting protein kinase (Homo sapiens) (UniProt Q9UKE5)
Sequence of TRAF2 and NCK-interacting protein kinase (Homo sapiens) (Q9UKE5 whole entry, looked up): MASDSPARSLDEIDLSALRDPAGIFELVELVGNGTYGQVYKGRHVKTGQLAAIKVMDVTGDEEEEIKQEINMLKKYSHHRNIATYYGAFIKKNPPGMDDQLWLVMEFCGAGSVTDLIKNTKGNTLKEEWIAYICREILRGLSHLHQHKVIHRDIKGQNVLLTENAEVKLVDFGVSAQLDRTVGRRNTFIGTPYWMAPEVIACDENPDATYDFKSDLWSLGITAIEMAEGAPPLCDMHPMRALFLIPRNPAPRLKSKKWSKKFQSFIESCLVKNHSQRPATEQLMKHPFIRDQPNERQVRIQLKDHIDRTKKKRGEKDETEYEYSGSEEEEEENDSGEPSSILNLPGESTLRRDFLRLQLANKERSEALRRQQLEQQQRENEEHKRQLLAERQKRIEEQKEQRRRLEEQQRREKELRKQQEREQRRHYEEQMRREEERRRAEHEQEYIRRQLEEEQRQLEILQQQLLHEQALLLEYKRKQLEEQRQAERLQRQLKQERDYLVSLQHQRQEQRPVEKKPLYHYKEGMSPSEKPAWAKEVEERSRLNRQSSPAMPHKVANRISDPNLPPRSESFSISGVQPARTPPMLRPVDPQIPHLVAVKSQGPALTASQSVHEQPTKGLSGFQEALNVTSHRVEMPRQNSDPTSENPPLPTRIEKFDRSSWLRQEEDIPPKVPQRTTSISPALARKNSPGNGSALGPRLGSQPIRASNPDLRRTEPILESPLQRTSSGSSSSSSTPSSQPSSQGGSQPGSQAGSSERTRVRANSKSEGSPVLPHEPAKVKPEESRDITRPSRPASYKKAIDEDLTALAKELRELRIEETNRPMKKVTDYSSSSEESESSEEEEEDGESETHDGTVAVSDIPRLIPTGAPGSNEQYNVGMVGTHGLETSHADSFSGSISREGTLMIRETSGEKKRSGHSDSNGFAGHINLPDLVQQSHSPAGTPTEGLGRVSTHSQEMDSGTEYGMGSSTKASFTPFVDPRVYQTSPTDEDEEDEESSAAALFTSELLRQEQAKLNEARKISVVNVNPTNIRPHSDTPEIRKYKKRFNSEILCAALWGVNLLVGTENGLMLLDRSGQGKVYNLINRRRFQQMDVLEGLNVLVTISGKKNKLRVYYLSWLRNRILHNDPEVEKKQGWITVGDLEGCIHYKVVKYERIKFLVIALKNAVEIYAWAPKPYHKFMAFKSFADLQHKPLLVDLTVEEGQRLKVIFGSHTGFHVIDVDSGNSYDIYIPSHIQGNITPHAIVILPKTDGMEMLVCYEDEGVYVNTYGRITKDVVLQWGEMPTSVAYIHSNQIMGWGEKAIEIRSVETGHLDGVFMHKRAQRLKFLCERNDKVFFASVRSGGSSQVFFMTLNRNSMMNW

[29] = target: T2, Lymphokine-activated killer T-cell-originated protein kinase (Homo sapiens) (UniProt Q96KB5)
T2 sequence (whole entry): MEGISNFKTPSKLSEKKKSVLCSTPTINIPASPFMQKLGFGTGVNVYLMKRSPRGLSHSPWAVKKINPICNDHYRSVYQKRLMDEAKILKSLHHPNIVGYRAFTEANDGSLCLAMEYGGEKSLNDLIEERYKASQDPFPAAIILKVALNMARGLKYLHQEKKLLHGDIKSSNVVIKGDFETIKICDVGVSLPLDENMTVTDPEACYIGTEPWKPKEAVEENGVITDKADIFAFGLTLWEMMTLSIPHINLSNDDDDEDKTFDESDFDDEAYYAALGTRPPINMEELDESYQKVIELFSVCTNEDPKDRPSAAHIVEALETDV

[30] = target: Serine/threonine-protein kinase 25 (Homo sapiens) (UniProt O00506)

Compound | ΔTm [1] [°C] | ΔTm [2] [°C] | ΔTm [3] [°C] | ΔTm [4] [°C] | ΔTm [5] [°C] | ΔTm [6] [°C] | ΔTm [7] [°C] | ΔTm [8] [°C] | ΔTm [9] [°C] | ΔTm [10] [°C] | ΔTm [11] [°C] | ΔTm [12] [°C] | ΔTm [13] [°C] | ΔTm [14] [°C] | ΔTm [15] [°C] | ΔTm [16] [°C] | ΔTm [17] [°C] | ΔTm [18] [°C] | ΔTm [19] [°C] | ΔTm [20] [°C] | also measured
Nc1cc2ncnc(Nc3cccc(Br)c3)c2cc1N | -0.9 | 0.6 | 0.5 | -1.6 | -1 | 1.4 | 1.6 | 0.3 | 0.4 | 2.1 | 1.2 | 2.2 | 1.2 | 0.7 | 0.4 | -0.2 | 1 | 0.2 | -0.4 | 3.2 | ΔTm [21]: -1.4 °C; ΔTm [22]: 1 °C; ΔTm [23]: 3.4 °C; ΔTm [24]: 0.5 °C; ΔTm [25]: 5.7 °C; ΔTm [26]: 6.1 °C; ΔTm [27]: 4.2 °C; ΔTm [28]: 0.5 °C; ΔTm [29]: -0.2 °C; ΔTm [30]: 2.5 °C
O=C1Nc2ccccc2/C1=C1/Nc2ccccc2/C1=N\O | 6.6 | 2.2 | 3.1 | 2.8 | 5.9 | 9.1 | 7.8 | 2.4 | 2.6 | 2.7 | 11 | 13.1 | 5.9 | 6.4 | 0.8 | 1.2 | 3.1 | 3.3 | 8.9 | 5.2 | ΔTm [21]: 1.6 °C; ΔTm [22]: 4 °C; ΔTm [23]: 5.7 °C; ΔTm [24]: 4.1 °C; ΔTm [25]: 4.7 °C; ΔTm [26]: 6.2 °C; ΔTm [27]: 7 °C; ΔTm [28]: 5.9 °C; ΔTm [29]: 0 °C; ΔTm [30]: 4.9 °C
O=C(O)/C=C/c1cc(CO)ccc1CO | 0.7 | 0.1 | 0 | 0 | 0.1 | 0.9 | 0.6 | 0.7 | 0.4 | 0.8 | 0.1 | 0.8 | -0.1 | -0.2 | 0.2 | -0.2 | 0.5 | -4.4 | -0.2 | 2.2 | ΔTm [21]: 0.3 °C; ΔTm [22]: 0.4 °C; ΔTm [23]: 0.4 °C; ΔTm [24]: 0.3 °C; ΔTm [25]: 0 °C; ΔTm [26]: 0.5 °C; ΔTm [27]: 0.2 °C; ΔTm [28]: 0.8 °C; ΔTm [29]: 0.8 °C; ΔTm [30]: 0.5 °C
CC(C)c1cc(/C=C(\C#N)C(=O)NCCCc2ccccc2)cc(C(C)C)c1O | -0.8 | 1.1 | 2.8 | 1 | 1 | 1.2 | 1.3 | 0.8 | 0.5 | 0.7 | -1.2 | 0.1 | 0.3 | 0.3 | -0.1 | 0.9 | 0.9 | 0.7 | -0.1 | 0.3 | ΔTm [21]: 0.4 °C; ΔTm [22]: 0.5 °C; ΔTm [23]: -0.5 °C; ΔTm [24]: 0.2 °C; ΔTm [25]: 1.2 °C; ΔTm [26]: -0.1 °C; ΔTm [27]: 2.5 °C; ΔTm [28]: 0 °C; ΔTm [29]: -0.2 °C; ΔTm [30]: 0.7 °C
O=C1c2ccccc2-c2n[nH]c3cccc1c23 | 2.1 | 2.1 | 2 | -0.5 | 2.4 | 2.6 | 3 | 1.7 | 2.5 | 3.4 | 1.6 | 5.5 | 1.3 | 4.7 | 0.9 | 0.9 | 3.2 | 1.1 | 0.1 | 4.8 | ΔTm [21]: 1.6 °C; ΔTm [22]: 2.3 °C; ΔTm [23]: 2.2 °C; ΔTm [24]: 7 °C; ΔTm [25]: 2.2 °C; ΔTm [26]: 2.8 °C; ΔTm [27]: 3.3 °C; ΔTm [28]: 3 °C; ΔTm [29]: 0.8 °C; ΔTm [30]: 4.8 °C
NC1=NC(=O)/C(=C2\CCNC(=O)c3[nH]c(Br)cc32)N1 [HYMENIALDISINE] | 1 | 0 | -0.2 | 0 | 3.4 | 1.5 | 5.6 | 5.7 | 5.6 | 7.6 | 7.4 | 0.2 | 2 | 0.6 | 0.9 | 0 | 0.5 | 0.4 | 0.1 | 3.8 | ΔTm [21]: 5.8 °C; ΔTm [22]: 0.8 °C; ΔTm [23]: 0.2 °C; ΔTm [24]: 6.3 °C; ΔTm [25]: 2.1 °C; ΔTm [26]: 4.2 °C; ΔTm [27]: 1.8 °C; ΔTm [28]: 4.7 °C; ΔTm [29]: 0.1 °C; ΔTm [30]: 3.5 °C
CC(C)(C)c1cc(C=C2C(=O)C=CC2=O)cc(C(C)(C)C)c1O | -0.1 | -2.2 | -0.4 | 2.1 | -0.8 | 1.2 | 0.4 | 0.9 | 0.5 | -0.4 | -4 | -7.9 | -1.2 | -2.5 | 0.1 | 0.2 | 0.3 | 0.2 | 4.4 | 0.4 | ΔTm [21]: 1.1 °C; ΔTm [22]: 0.8 °C; ΔTm [23]: 0.3 °C; ΔTm [24]: -5 °C; ΔTm [25]: 0.9 °C; ΔTm [26]: 0.4 °C; ΔTm [27]: 0 °C; ΔTm [28]: -3.1 °C; ΔTm [29]: -0.1 °C; ΔTm [30]: 0.6 °C
O=C1Cc2c([nH]c3ccc([N+](=O)[O-])cc23)-c2ccccc2N1 | 0.7 | 0.8 | 0.5 | 0 | 2.5 | 4.4 | 0.7 | 1.4 | 0.8 | 1.6 | 11.9 | 1 | 0.3 | 1.2 | 1.1 | 0.8 | 1.2 | 3.8 | 3.8 | 2.8 | ΔTm [21]: 0.5 °C; ΔTm [22]: 1.6 °C; ΔTm [23]: 1.3 °C; ΔTm [24]: 0.2 °C; ΔTm [25]: 2.1 °C; ΔTm [26]: 2.3 °C; ΔTm [27]: 1.3 °C; ΔTm [28]: 6.1 °C; ΔTm [29]: 0.1 °C; ΔTm [30]: 2.4 °C
